Experimental data taken from article PMC3497017, “Antioxidant and Anti-Protease Activities of Diazepinomicin from the Sponge-Associated Micromonospora Strain RV115” (Marine Drugs, 2012).

Target: T1, human cathepsin L (Homo sapiens, UniProt P07711)
T1 construct: gene CTSL
Assay: fluorogenic Cbz-Phe-Arg-AMC hydrolysis with inner-filter correction, confirmed by HPLC-based assay
Type: biochemical

T1 sequence (P07711 114-288): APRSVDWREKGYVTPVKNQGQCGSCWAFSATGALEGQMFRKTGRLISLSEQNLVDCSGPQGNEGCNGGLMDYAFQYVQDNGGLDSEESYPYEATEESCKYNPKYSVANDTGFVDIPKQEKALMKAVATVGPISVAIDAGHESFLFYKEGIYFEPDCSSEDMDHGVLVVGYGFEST
T1 sequence (P07711 292-333): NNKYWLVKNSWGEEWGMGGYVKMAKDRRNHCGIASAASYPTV

IC50: 72.4 ± 5.3 µM
Structure (SMILES): CC(C)=CCC/C(C)=C/CC/C(C)=C/CN1C(=O)c2cccc(O)c2Nc2c(O)cc(O)cc21 [compound 1, diazepinomicin]
